What follows are compounds tested against T1, human c-Met (Homo sapiens, UniProt P08581) (assay: in vitro kinase assay (homogeneous time-resolved tyrosine kinase assay, METKA)). Details: recombinant GST-tagged c-Met cytosolic domain, HTRF, 50 μM MgATP; read-out: Biological Activity (METKA IC50) Activity Code.
T1 construct: Recombinant GST-tagged cytosolic domains of human c-Met; 6xHis; made in house; host or cells: Sf9 or Sf21 insect cells (baculovirus)
Assay type: biochemical
Source text: Recombinant GST-tagged cytosolic domains of human c-Met and other receptor tyrosine kinases including mouse c-Met, human Ron, KDR, IGFR, EGFR, FGFR, Mer, TrkA and Tie2 are used to determine whether the compounds of the instant invention modulate the enzymatic activities of these kinases.
Soluble recombinant GST-tagged cytosolic domains of c-Met and other receptor tyrosine kinases are expressed in a baculovirus system (Pharmingen) according to a protocol recommended by the manufacturer. The c-DNA encoding each cytosolic domain is subcloned into a baculovirus expression vector (pGcGHLT-A, B or C, Pharmingen) containing an in frame 6× histidine tag and a GST tag. The resulting plasmid construct and BaculoGold baculovirus DNA (Pharmingen) are used to co-transfect Sf9 or Sf21 insect cells. After confirming expression of GST-tagged kinase fusion, a high titer recombinant baculovirus stock is produced, expression conditions are optimized, and a scaled up expression of rat KDR-GST fusion is performed. The fusion kinase is then purified from the insect cell lysate by affinity chromatography using glutathione agarose (Pharmingen). The purified protein is dialyzed against 50% glycerol, 2 mM DTT, 50 mM Tris-HCl (pH 7.4) and stored at −20° C. The protein concentrations of the fusion proteins are determined using Coomassie Plus Protein Assay (Pierce) with BSA as standard.
The kinase activities of c-Met and other kinases are measured using a modified version of the homogeneous time-resolved tyrosine kinase assay described by Park et al. (1999, Anal. Biochem. 269:94-104).
The procedure for determining the potency of a compound to inhibit c-Met kinase comprises the following steps: • 1. Prepare 3-fold serial diluted compound solutions in 100% dimethyl sulfoxide (DMSO) at 20× of the desired final concentrations in a 96 well plate. • 2. Prepare a master reaction mix containing 6.67 mM MgCl2, 133.3 mM NaCl, 66.7 mM Tris-HCl (pH 7.4), 0.13 mg/ml BSA, 2.67 mM dithiothreitol, 0.27 nM recombinant c-Met and 666.7 nM biotinylated synthetic peptide substrate (biotin-ahx-EQEDEPEGDYFEWLE-CONH2) (SEQ.ID.NO.:1). • 3. In a black assay plate, add 2.5 μl of compound solution (or DMSO) and 37.5 μl of master reaction mix per well. Initiate the kinase reaction by adding 10 μl of 0.25 mM MgATP per well. Allow the reactions to proceed for 80 min at room temperature. The final conditions for the reaction are 0.2 nM c-Met, 0.5 μM substrate, 50 μM MgATP, […], 100 mM NaCl, 2 mM DTT, 0.1 mg/ml BSA, 50 mM Tris (pH 7.4) and 5% DMSO. • 4. Stop the kinase reaction with 50 μl of Stop/Detection buffer containing 10 mM EDTA, 25 mM HEPES, 0.1% TRITON X-100, 0.126 μg/ml Eu-chelate labeled anti-phosphotyrosine antibody PY20 (cat. #AD0067, PerkinElmer) and 45 μg/ml Streptavidin-allophycocyanin conjugate (cat. #PJ25S, Prozyme). • 5. Read HTRF signals on a Victor reader (PerkinElmer) in HTRF mode after 60 min. • 6. IC50 is determined by fitting the observed relationship between compound concentration and HTRF signal with a 4-parameter logistic equation. Essentially the same procedure was used to determine the potency of compounds to inhibit mouse c-Met, human Ron, KDR, IGFR, EGFR, FGFR, Mer, TrkA and Tie2 except that the concentration of enzyme varied in individual assays (0.2 nM mouse c-Met; 2.5 nM Ron, 8 nM KDR; 0.24 nM IGFR; 0.24 nM EGFR; 0.14 nM FGFR; 16 nM Mer; 8 nM TrkA; 8 nM Tie2).

T1 sequence (P08581 956-1390 limits assumed): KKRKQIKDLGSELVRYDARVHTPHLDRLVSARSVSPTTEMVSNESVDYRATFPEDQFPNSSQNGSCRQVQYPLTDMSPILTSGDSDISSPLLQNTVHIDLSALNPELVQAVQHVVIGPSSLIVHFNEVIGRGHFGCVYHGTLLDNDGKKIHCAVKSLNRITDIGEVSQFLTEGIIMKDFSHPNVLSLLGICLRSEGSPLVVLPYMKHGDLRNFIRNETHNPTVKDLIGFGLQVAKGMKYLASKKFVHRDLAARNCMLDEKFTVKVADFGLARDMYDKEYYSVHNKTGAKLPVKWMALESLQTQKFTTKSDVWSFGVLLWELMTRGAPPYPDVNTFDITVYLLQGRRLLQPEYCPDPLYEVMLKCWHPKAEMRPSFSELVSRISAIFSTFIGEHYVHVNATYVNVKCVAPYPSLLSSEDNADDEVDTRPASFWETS

IC50 [nM] | SMILES
< 100 | Cn1cc(-n2ccc(=O)c(COc3ccc4[nH]c(-c5ccccc5)nc4c3)n2)cn1 [Example 19, 1-(1-methyl-1H-pyrazol-4-yl)-3-{[(2-phenyl-1H-benzimidazol-5-yl)oxy]methyl}pyridazin-4(1H)-one]
< 100 | O=c1ccn(-c2cccc(Br)c2)nc1COc1ccc2ncccc2c1 [Example 20, 1-(3-Bromophenyl)-3-[(quinolin-6-yloxy)methyl]pyridazin-4(1H)-one]
< 100 | O=c1ccn(-c2cncc(Br)c2)nc1COc1ccc2ncccc2c1 [Example 21, 1-(5-bromopyridin-3-yl)-3-[(quinolin-6-yloxy)methyl] pyridazin-4(1H)-one]
< 100 | CCn1cc(-n2ccc(=O)c(COc3ccc4ncccc4c3)n2)cn1 [Example 22, 1-(1-ethyl-1H-pyrazol-4-yl)-3-[(quinolin-6-yloxy)methyl] pyridazin-1(4H)-one]
< 100 | CCOc1cnc2ccc(OCc3nn(-c4cnn(C)c4)ccc3=O)cc2c1 [Example 23, 3-{[(3-Ethoxyquinolin-6-yl)oxy]methyl}-1-(1-methyl-1H-pyrazol-4-yl)pyridazin-4(1H)-one]
< 100 | COCCOc1cnc2ccc(OCc3nn(-c4cnn(C)c4)ccc3=O)cc2c1 [Example 24, 3-({[3-(2-methoxyethoxy)quinolin-6-yl]oxy}methyl)-1-(1-methyl-1H-pyrazol-4-yl)pyridazin-4(1H)-one]
< 100 | Cn1cc(-n2ccc(=O)c(COc3ccc4ncc(OCC5CCOC5)cc4c3)n2)cn1 (stereo not shown) [Example 25, 1-(1-methyl-1H-pyrazol-4-yl)-3-({[3-(tetrahydrofuran-3-ylmethoxy)quinolin-6-yl]oxy}methyl)pyridazin-4(1H)-one]
< 100 | Cn1cc(-n2ccc(=O)c(COc3ccc4ncc(OCC5(C)COC5)cc4c3)n2)cn1 [Example 26, 3-[({3-[(3-methyloxetan-3-yl)methoxy]quinolin-6-yl}oxy)methyl]-1-(1-methyl-1H-pyrazol-4-yl)pyridazin-4(1H)-one]
100 to 1000 | Cn1cc(-n2ccc(=O)c(COc3ccc4ncncc4c3)n2)cn1 [Example 27, 1-(1-methyl-1H-pyrazol-4-yl)-3-[(quinazolin-6-yloxy)methyl]pyridazin-4(1H)-one]
< 100 | COCCOc1cnc2ccc(OCc3nn(-c4cc(F)cc(C#N)c4)ccc3=O)cc2c1 [Example 28, 3-fluoro-5-[3-({[3-(2-methoxyethoxy)quinolin-6-yl]oxy}methyl)-4-oxopyridazin-1(4H)-yl]benzonitrile]
< 100 | COCCOc1cnc2ccc(OCc3nn(-c4cc(Cl)cc(C#N)c4)ccc3=O)cc2c1 [Example 29, 3-chloro-5-[3-({[3-(2-methoxyethoxy)quinolin-6-yl]oxy}methyl)-4-oxopyridazin-1(4H)-yl]benzonitrile]
< 100 | COCCOc1cnc2ccc(OCc3nn(-c4ccc(F)c(F)c4)ccc3=O)cc2c1 [Example 30, 1-(3,4-difluorophenyl)-3-({[3-(2-methoxyethoxy)quinolin-6-yl]oxy}methyl)pyridazin-4(1H)-one]
< 100 | COCCOc1cnc2ccc(OCc3nn(-c4cc(F)cc(F)c4)ccc3=O)cc2c1 [Example 31, 1-(3,5-difluorophenyl)-3-({[3-(2-methoxyethoxy)quinolin-6-yl]oxy}methyl)pyridazin-4(1H)-one]
1000 to 3000 | Cn1cc(-n2ccc(=O)c(COc3cc(F)c4ncccc4c3)n2)cn1 [Example 32, 3-{[(8-fluoroquinolin-6-yl)oxy]methyl}-1-(1-methyl-1H-pyrazol-4-yl)pyridazin-4(1H)-one]
100 to 1000 | CCOCCOc1ccnc2ccc(OCc3nn(-c4cnn(C)c4)ccc3=O)cc12 [Example 33, 3-({[4-(2-ethoxyethoxy)quinolin-6-yl]oxy}methyl)-1-(1-methyl-1H-pyrazol-4-yl)pyridazin-4(1H)-one]
100 to 1000 | COCCOc1ccnc2ccc(OCc3nn(-c4cnn(C)c4)ccc3=O)cc12 [Example 34, 3-({[4-(2-methoxyethoxy)quinolin-6-yl]oxy}methyl)-1-(1-methyl-1H-pyrazol-4-yl)pyridazin-4(1H)-one]
